Reference: US8492341B2, “Amyloid-β binding peptides” (Alzyme Pty Ltd., priority 2006, dated 2013)

Columns and labels:
M17 Neuroblastoma cells = experiment: MTS cell viability assay, cell death induced by human Aβ1-42 (40 μM); type: cell-based
Description: M17 Neuroblastoma cells were seeded in a 48 well plate at a density of 50,000 cells per well. The plate was incubated for 24 hours at 37° C. in media (OPTI-MEM) containing 10% FCS. The next day the cells were treated with human Aβ1-42 (40 μM) in the presence or absence of the peptides 15merTNP or peptide analogue MP2 (FIG. 2). The peptides were provided at concentrations ranging from 20-400 μM prepared in Neuro basal media containing B27 supplement without antioxidants. Following incubation (4 days at 37° C.), cell viability was assessed using the CellTiter 96® AQueous One Solution cell proliferation assay (MTS; Promega, Wis., USA) as per manufactures instructions. Briefly, 200 μl of MTS reagent (1/10 dilution) was added directly to the culture wells and the plate incubated for 3 hours at 37° C. Following incubation, 150 μl of the solution was transferred to a 96 well plate and the absorbance is determined spectrophotometrically at 490 nm.
Similar to the MTT assay, the MTS assay is a colorimetric method for determining the number of viable cells in proliferation or cytotoxicity assays. The principle of the MTS assay is the same as the MTT assay, except for the tetrazolium compound that is bio-reduced by the mitochondria of the cells, forming a coloured formazan product that is soluble (rather than insoluble for the MTT assay) in tissue culture medium. This conversion is accomplished by NADPH or NADH produced by dehydrogenase enzymes in metabolically active cells: Berridge M V. And Tan A. S. (1993) Characterisation of the cellular reduction of 3-(4,5-dimethylthiazol-2-yl)-2,5-diphenyltetrazolium bromide (MTT): Subcellular localisation, substrate dependence and involvement of mitochondrial electron transport in MTT reduction. Arch. Biochem. Biophys. 303, 474-82.
The effect of human Aβ1-42 (40 μM) on cell viability was determined in triplicate in each of the 10 MTS assays (i.e. n=30) performed in this study. All data are presented as means±SEM.
The effect of peptide analogue MP2 to protect against human Aβ42-induced toxicity was then determined using the MTS assay in triplicate in two separate experiments for all doses (i.e. n=6), unless otherwise specified. The effectiveness of MP2 was compared against the 15merTNP.

[1] = In vitro peptide stability in 10% rodent brain homogenate; type: in vitro ADME, rat
Description: For the peptide stability assay in vitro, both 15merTNP and peptide analogue MP2 were incubated separately with fresh 10% rodent brain homogenate to model degradation in tissues. In order to create a physiological dose of peptide in the in vitro assay, both radioactive (^3H-labelled; hot) and non-radioactive (cold) peptides were combined in a set ratio. Cold peptide was added at a dose of […] per ml of 10% brain homogenate. Hot peptide was added at a dose of 250 μCi per ml 10% brain homogenate. Following the addition of hot and cold peptide; the homogenate was vortexed and incubated for different time points. The reaction was stopped by adding complete protease inhibitor cocktail and the samples analysed.
The biological stability of the peptides was evaluated by incubating them (90 nmol) in fresh 10% rodent brain homogenate for different times at 37° C. The amount of intact peptide was estimated by running the supernatant of the homogenate on a 16% Tricine gel to separate peptide that had not had its amino acid sequence degraded. FIG. 3 illustrates the relative stability of 15merTNP and peptide analogue MP2 over two hours run on a 16% Tricine gel from time 0-120 min with samples run in duplicate. The values correspond to the in vitro half-life, which is defined as the time needed for 50% degradation of the peptide.

[2] = design: species or system mice (129×1 strain); details: mouse, in vivo
Description: Another essential requirement of drug development is the ability of the peptide to cross the BBB and impact on targeted tissue. To measure the ability of 15merTNP and peptide analogue MP2 to cross the BBB, intracerebroventricular (i.c.v) delivery was assessed. The use of i.c.v injections on animal models allows for high doses to be delivered straight to the ventricular spaces where it can cross the parenchyma layer to the brain matter.
For i.c.v injections, control mice (129×1 strain) were anesthetized with intraperitoneal ketamine/xylazine at a dose of 10 ml/kg and then administered with 200 μg of either peptide (90 nmol). Both radioactive (^3H-labelled; hot) and non-radioactive (cold) was used to allow physiological doses of peptide to be delivered.
To determine whether the peptides had effectively penetrated into the brain parenchyma, a capillary depletion experiment was performed. After 25 min post injection the animal was sacrificed and the brain removed. This was homogenized and centrifuged for 10 min at 13000 rpm at 4° C. resulting in a supernatant containing predominately radioactivity from the cortex and a pellet with radioactivity from the capillaries and endothelium. A comparison of radioactivity in each sample was conducted to assess percentage of peptide movement into the cortex. The amount of radioactivity in the capillary pellet of mice that were perfused and not perfused with saline solution was compared to determine the percentage of peptide bound to the luminal surface of the capillaries and sequestered by brain endothelial cells.
A detailed necropsy was performed on each animal following perfusion to thoroughly assess peptide movement throughout peripheral organs, central nervous tissue and blood. […] Thus the concentration of labelled tritium could be measured per mass of sample and using this and the known ratio of non-labelled peptide present, the concentration of total peptide could be determined.
The pharmacokinetic profile of peptide analogue MP2 over four time points, post i.c.v injection into the CNS was determined. […]

human Aβ42 = experiment: MTS cell viability assay of MP2 analogues, cells treated with human Aβ42 (20 μM); type: cell-based; details: peptide 80-400 μM
Description: FIG. 7 illustrates the effect of various peptide analogues of the peptide analogue of SEQ ID NO:2 on cell viability associated with human Aβ1-42. Cells were treated with human Aβ42 peptide (20 μM) in the absence or presence of increasing doses of MP2, MP4, MP5 or MP6 (n=6, for each peptide). Cell viability was assessed by the MTS assay.
Cells were treated with human Aβ42 peptide (20 μM) in the absence or presence of increasing doses of MP2, MP4, MP5 or MP6 (n=6, for each peptide). Cell viability was assessed by the MTS assay.

Ac-NRTPQMLKR-NH2 [MP2, Ac-Asn-Arg-Thr-Pro-Gln-Met-Leu-Lys-Arg-NH2]
maximum reduction in cell toxicity associated with human Aβ1-42 (M17 Neuroblastoma cells; Aβ1-42 40 μM): around 15% | effect on cell death associated with human Aβ1-42 (M17 Neuroblastoma cells; peptide concentration ≧200 μM, P<0.05): significantly reduced cell death | effect on cell death associated with human Aβ1-42 (M17 Neuroblastoma cells; peptide concentrations ≦80 μM): no effect | Stability in rat brain homogenate (in vitro half-life) ([1]; 10% brain homogenate, 37° C., listed as Peptide analogue MP2): >24 h | stability relative to 15merTNP ([1]; 10% rodent brain homogenate, 24 hour time period): significantly more stable | half-life at 2.5 mmol per ml ([1]; rat, fresh 10% brain homogenate, 10% brain homogenate, 37° C.): > 24 h | crossing of the blood brain barrier [2]: poorly | peptide removed from the CNS [2]: 99% | cell viability following treatment with human Aβ42 (human Aβ42): significantly increased
